PubChem BioAssay (NCI)
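Five concentrations, 48 hours, 96-well plates. The concentration for full growth arrest is given as TGI.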

Columns and labels:
Assay in all cases: growth of human tumour cells (NCI), 48 h
[1] = test system: 786-0 renal
[2] = test system: A549 NSCLC
[3] = test system: ACHN renal
[4] = test system: BT-549 breast
[5] = test system: CCRF-CEM leukemia
[6] = test system: COLO 205 colon
[7] = test system: DU-145 prostate
[8] = test system: EKVX NSCLC
[9] = test system: HCC-2998 colon
[10] = test system: HCT-116 colon
[11] = test system: HCT-15 colon
[12] = test system: HL-60(TB) leukemia
[13] = test system: HOP-62 NSCLC
[14] = test system: HOP-92 NSCLC
[15] = test system: HS 578T breast
[16] = test system: HT29 colon
[17] = test system: IGROV1 ovarian
[18] = test system: K-562 leukemia
[19] = test system: KM12 colon
[20] = test system: LOX IMVI melanoma
[21] = test system: M14 melanoma
[22] = test system: MALME-3M melanoma
[23] = test system: MCF7 breast
[24] = test system: MDA-MB-231 breast
[25] = test system: MDA-MB-435
[26] = test system: MDA-N
[27] = test system: MOLT-4 leukemia
[28] = test system: NCI-H226 lung
[29] = test system: NCI-H23 lung
[30] = test system: NCI-H460 lung
[31] = test system: NCI-H522 lung
[32] = test system: NCI/ADR-RES ovarian
[33] = test system: OVCAR-3 ovarian
[34] = test system: OVCAR-4 ovarian
[35] = test system: OVCAR-5 ovarian
[36] = test system: OVCAR-8 ovarian
[37] = test system: PC-3 prostate
[38] = test system: RPMI-8226 leukemia
[39] = test system: RXF 393 renal
[40] = test system: SF-268 CNS
[41] = test system: SF-295 CNS
[42] = test system: SF-539 CNS
[43] = test system: SK-MEL-28 melanoma
[44] = test system: SK-MEL-5 melanoma
[45] = test system: SK-OV-3 ovarian
[46] = test system: SN12C renal
[47] = test system: SNB-19 CNS
[48] = test system: SNB-75 CNS
[49] = test system: SR leukemia
[50] = test system: SW-620 colon
[51] = test system: T-47D breast
[52] = test system: TK-10 renal
[53] = test system: U251 CNS
[54] = test system: UACC-257 melanoma
[55] = test system: UACC-62 melanoma
[56] = test system: UO-31 renal
[57] = test system: A498 renal
[58] = test system: CAKI-1 renal
[59] = test system: SK-MEL-2 melanoma

Measured: TGI

CCOC1NC(=O)c2ccccc21 (stereo not given)
not listed: [57] | [58] | [59]
> 100 µM: all other assays above

O=C1NN=C(c2c[nH]c3ccccc23)CC1NCc1ccccc1 (stereo not given)
not listed: [8] | [9] | [23] | [34] | [49]
> 100 µM: all other assays above
